The results in this text go back to US20240293164A1, “METHODS AND COMPOSITIONS OF CRYOABLATION WITH DRUG DELIVERY” (Theromics, Inc., priority 2023, published 2024).

The data set is described as follows: differential scanning calorimetry (DSC), heat flow as a function of temperature. The format is physicochemical. The procedure: This is also an exothermic event. Upon heating, the cryoablation gel melts at about −10° C.
An exothermic event begins as the sample is cooled to about −18° C.; and the phase changing event is more than 10° C. wide. This process is more than 4×more exothermic than the crystallization of cryoablation gel, showing that the water crystallization process is much more chaotic with high entropy and takes a while to reach an ordered state. On the contrary, the cryoablation gel is a more highly ordered substance and the crystallization event produces less energy due to the relatively lower entropy.
(Differential scanning calorimetry records heat flow against a reference as temperature is scanned.)

For `O` [water], where the note is “cooling”, the “temperature of phase change (exothermic event) on cooling” value was “about −18 °C” and the “width of phase changing event” value is “more than 10 °C”. The “exothermicity of crystallization relative to cryoablation gel” value (water versus cryoablation gel) is recorded as “more than 4 ×”.
